Assay results reported in PubChem BioAssay (NCI).
“And” between values parts separate entries of the source, which are not always exact repeats. Identical values can stand only once.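 Protocol summary: plate cells (96-well), add compound at 5 concentrations, incubate 48 h, interpolate endpoints linearly. Here, GI50 denotes the concentration required for 50% inhibition of growth. At the TGI there is no net growth.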

What was measured:
Experiment in all cases: NCI-60 cell line screen, 48 h
[1] = tested on: OVCAR-5 ovarian
[2] = tested on: HT29 colon
[3] = tested on: HCT-15 colon
[4] = tested on: DU-145 prostate
[5] = tested on: ACHN renal
[6] = tested on: NCI-H460 lung
[7] = tested on: M14 melanoma
[8] = tested on: A498 renal
[9] = tested on: K-562 leukemia
[10] = tested on: DMS 273 small cell lung
[11] = tested on: HCT-116 colon
[12] = tested on: UO-31 renal
[13] = tested on: DLD-1 colon
[14] = tested on: SK-OV-3 ovarian
[15] = tested on: HOP-92 NSCLC
[16] = tested on: T-47D breast
[17] = tested on: HOP-18 NSCLC
[18] = tested on: UACC-257 melanoma
[19] = tested on: NCI-H226 lung
[20] = tested on: UACC-62 melanoma
[21] = tested on: KM20L2 colon
[22] = tested on: LOX IMVI melanoma
[23] = tested on: MDA-N
[24] = tested on: KM12 colon
[25] = tested on: BT-549 breast
[26] = tested on: CCRF-CEM leukemia
[27] = tested on: MCF7 breast
[28] = tested on: A549 NSCLC
[29] = tested on: DMS 114 small cell lung
[30] = tested on: LXFL 529 NSCLC
[31] = tested on: SNB-78 CNS
[32] = tested on: SK-MEL-2 melanoma
[33] = tested on: M19-MEL melanoma
[34] = tested on: PC-3 prostate
[35] = tested on: OVCAR-3 ovarian
[36] = tested on: 786-0 renal
[37] = tested on: NCI-H522 lung
[38] = tested on: OVCAR-8 ovarian
[39] = tested on: SR leukemia
[40] = tested on: COLO 205 colon
[41] = tested on: MALME-3M melanoma
[42] = tested on: SF-539 CNS
[43] = tested on: IGROV1 ovarian
[44] = tested on: SF-268 CNS
[45] = tested on: NCI-H23 lung
[46] = tested on: RPMI-8226 leukemia
[47] = tested on: CAKI-1 renal
[48] = tested on: SNB-75 CNS
[49] = tested on: SF-295 CNS
[50] = tested on: HOP-62 NSCLC
[51] = tested on: SW-620 colon
[52] = tested on: SK-MEL-28 melanoma
[53] = tested on: TK-10 renal
[54] = tested on: SK-MEL-5 melanoma
[55] = tested on: SN12C renal
[56] = tested on: OVCAR-4 ovarian
[57] = tested on: HL-60(TB) leukemia
[58] = tested on: U251 CNS
[59] = tested on: MOLT-4 leukemia
[60] = tested on: RXF 393 renal
[61] = tested on: SNB-19 CNS
[62] = tested on: EKVX NSCLC
[63] = tested on: XF 498 CNS
[64] = tested on: HCC-2998 colon

Compound: CC[C@@]1(O)C[C@H](OC2CC(N(C)C)C(OC3CC(O)C(OC4CCC(=O)C(C)O4)C(C)O3)C(C)O2)c2c(cc3c(c2O)C(=O)c2c(O)ccc(O)c2C3=O)[C@H]1C(=O)OC (some centres not stated)
- TGI [1]: 0.0221 µM and 0.065 µM
- TGI [2]: 16.2 nM [middle of 4 runs]
- TGI [3]: 0.00581 µM and 0.0298 µM
- TGI [4]: 0.038 µM
- TGI [5]: 0.0164 µM and 0.0258 µM and 0.0225 µM
- GI50 [6]: 54.1 pM
- TGI [6]: 0.000343 µM and < 0.0001 µM
- TGI [7]: 0.0185 µM and 0.0374 µM and 0.152 µM
- TGI [8]: 0.0142 µM and 0.0245 µM
- TGI [9]: 0.119 µM
- TGI [10]: 0.014 µM and 0.0198 µM
- GI50 [11]: 54 pM
- TGI [11]: < 0.0001 µM
- TGI [12]: 0.000508 µM and < 0.0001 µM
- TGI [13]: 0.0737 µM
- GI50 [14]: 0.0221 µM
- TGI [15]: 0.0353 µM and 0.0713 µM and 0.092 µM
- TGI [16]: 0.00569 µM and 0.0121 µM
- GI50 [17]: 11.7 µM
- TGI [17]: 24.1 µM
- GI50 [18]: < 0.0001 µM
- TGI [19]: 0.00641 µM and 0.0275 µM
- TGI [20]: 0.012 µM and 0.0118 µM and 0.0205 µM
- GI50 [21]: 66.7 pM
- TGI [21]: 0.0781 µM and 0.041 µM and 0.2 µM
- TGI [22]: 0.000668 µM
- TGI [23]: 0.00259 µM
- TGI [24]: 0.0314 µM and 0.0126 µM and 0.113 µM
- TGI [25]: 0.00927 µM and 0.00276 µM
- TGI [26]: 0.012 µM and 0.0478 µM
- TGI [27]: 0.101 µM
- GI50 [28]: 0.000449 µM
- GI50 [29]: 0.000291 µM
- TGI [29]: 0.022 µM and 0.0306 µM and 0.0347 µM
- GI50 [30]: 11.2 pM
- GI50 [31]: 0.00311 µM
- TGI [32]: 0.0166 µM and 0.0198 µM and 0.0243 µM
- GI50 [33]: 12.5 pM
- TGI [33]: 0.0121 µM and 0.0129 µM and 0.0336 µM
- TGI [34]: 0.0062 µM

Compound: COc1cc(C(C#N)NNC(=O)Cc2ccccc2)cc(OC)c1OC (configuration not stated)
- TGI [1]: > 100 µM
- TGI [35]: > 100 µM
- TGI [2]: > 100 µM
- TGI [3]: > 100 µM
- TGI [36]: > 100 µM
- TGI [37]: > 100 µM
- TGI [38]: > 100 µM
- TGI [39]: > 100 µM
- TGI [5]: > 100 µM
- TGI [40]: > 100 µM
- TGI [41]: > 100 µM
- TGI [42]: > 100 µM
- TGI [43]: > 100 µM
- TGI [44]: > 100 µM
- TGI [6]: > 100 µM
- TGI [45]: > 100 µM
- TGI [7]: > 100 µM
- TGI [46]: > 100 µM
- TGI [47]: > 100 µM
- TGI [48]: > 100 µM
- TGI [9]: > 100 µM
- TGI [10]: > 100 µM
- TGI [11]: > 100 µM
- TGI [49]: > 100 µM
- TGI [50]: > 100 µM
- TGI [51]: > 100 µM
- TGI [12]: > 100 µM
- TGI [52]: > 100 µM
- TGI [13]: > 100 µM
- TGI [53]: > 100 µM
- TGI [14]: > 100 µM
- TGI [15]: > 100 µM
- TGI [17]: > 100 µM
- TGI [18]: > 100 µM
- TGI [54]: > 100 µM
- TGI [55]: > 100 µM
- TGI [19]: > 100 µM
- TGI [56]: > 100 µM
- TGI [20]: > 100 µM
- TGI [21]: > 100 µM
- TGI [57]: > 100 µM
- TGI [22]: > 100 µM
- TGI [24]: > 100 µM
- TGI [58]: > 100 µM
- TGI [28]: > 100 µM
- TGI [29]: > 100 µM
- TGI [30]: > 100 µM
- TGI [31]: > 100 µM
- TGI [59]: > 100 µM
- TGI [32]: > 100 µM
- TGI [60]: > 100 µM
- TGI [33]: > 100 µM

Compound: c1ccc(CCCC2Sc3cccc4cccc(c34)S2)cc1
- TGI [1]: > 100 µM
- TGI [35]: > 100 µM
- TGI [2]: > 100 µM
- TGI [3]: > 100 µM
- TGI [36]: > 100 µM
- TGI [37]: > 100 µM
- TGI [38]: > 100 µM
- TGI [5]: > 100 µM
- TGI [40]: > 100 µM
- TGI [41]: > 100 µM
- TGI [42]: > 100 µM
- TGI [43]: > 100 µM
- TGI [44]: > 100 µM
- TGI [6]: > 100 µM
- TGI [45]: > 100 µM
- TGI [7]: > 100 µM
- TGI [46]: > 100 µM
- TGI [47]: > 100 µM
- TGI [48]: > 100 µM
- TGI [9]: > 100 µM
- TGI [10]: > 100 µM
- TGI [11]: > 100 µM
- TGI [49]: > 100 µM
- TGI [50]: > 100 µM
- TGI [51]: > 100 µM
- TGI [12]: > 100 µM
- TGI [61]: > 100 µM
- TGI [52]: > 100 µM
- TGI [13]: > 100 µM
- TGI [53]: > 100 µM
- TGI [14]: > 100 µM
- TGI [15]: > 100 µM
- TGI [54]: > 100 µM
- TGI [55]: > 100 µM
- TGI [19]: > 100 µM
- TGI [56]: > 100 µM
- TGI [20]: > 100 µM
- TGI [21]: > 100 µM
- TGI [62]: > 100 µM
- TGI [57]: > 100 µM
- TGI [22]: > 100 µM
- TGI [24]: > 100 µM
- TGI [26]: > 100 µM
- TGI [58]: > 100 µM
- TGI [63]: > 100 µM
- TGI [28]: > 100 µM
- TGI [29]: > 100 µM
- TGI [30]: > 100 µM
- TGI [31]: > 100 µM
- TGI [32]: > 100 µM
- TGI [60]: > 100 µM
- TGI [33]: > 100 µM
- TGI [64]: > 100 µM

Compound: Cc1cc(Cl)ccc1NC(=O)C(=O)Cc1ccc([N+](=O)[O-])c([N+](=O)[O-])c1CC(=O)C(=O)Nc1ccc(Cl)cc1C
- TGI [1]: > 100 µM
- TGI [35]: > 100 µM
- TGI [2]: > 100 µM
- TGI [3]: > 100 µM
- TGI [36]: > 100 µM
- TGI [37]: > 100 µM
- TGI [38]: > 100 µM
- TGI [39]: > 100 µM
- TGI [5]: > 100 µM
- TGI [40]: > 100 µM
- TGI [41]: > 100 µM
- TGI [42]: > 100 µM
- TGI [43]: > 100 µM
- TGI [44]: > 100 µM
- TGI [6]: > 100 µM
- TGI [45]: > 100 µM
- TGI [7]: > 100 µM
- TGI [46]: > 100 µM
- TGI [8]: > 100 µM
- TGI [47]: > 100 µM
- TGI [48]: > 100 µM
- TGI [9]: > 100 µM
- TGI [10]: > 100 µM
- TGI [11]: > 100 µM
- TGI [49]: > 100 µM
- TGI [50]: > 100 µM
- TGI [51]: > 100 µM
- TGI [12]: > 100 µM
- TGI [61]: > 100 µM
- TGI [52]: > 100 µM
- TGI [53]: > 100 µM
- TGI [14]: > 100 µM
- TGI [15]: > 100 µM
- TGI [17]: > 100 µM
- TGI [18]: > 100 µM
- TGI [54]: > 100 µM
- TGI [55]: > 100 µM
- TGI [19]: > 100 µM
- TGI [56]: > 100 µM
- TGI [20]: > 100 µM
- TGI [21]: > 100 µM
- TGI [62]: > 100 µM
- TGI [57]: > 100 µM
- TGI [22]: > 100 µM
- TGI [24]: > 100 µM
- TGI [26]: > 100 µM
- TGI [58]: > 100 µM
- TGI [63]: > 100 µM
- TGI [28]: > 100 µM
- TGI [29]: > 100 µM
- TGI [30]: > 100 µM
- TGI [31]: > 100 µM
- TGI [59]: > 100 µM
- TGI [32]: > 100 µM
- TGI [60]: > 100 µM
- TGI [33]: > 100 µM
- TGI [64]: > 100 µM
